From patent US20260130925A1, “METHODS FOR TREATING CANCER” (Genesis Molecular AI, Inc., priority 2022, published 2026)
pIC50: −log10 of the molar value.

Columns and labels:
[1] = biological target: T1, PI3Kα H1047R in T47D cells (Homo sapiens, UniProt P42336, H1047R); assay: PI3Kα cellular assay: T47D pAKT S473 HTRF; type: cell-based; conditions: for T47D pAKT S473 HTRF IC50 (H1047R): T47D (H1047R) selectivity over SKBR3 (WT): T47D (H1047R) versus SKBR3 (WT) cells; for pIC50: T47D cells (H1047R), serum starved, 1 hr compound, 20 ng/ml EGF 10 min
T1 construct: endogenous in cells; host or cells: T47D
Procedure: PI3Kα cellular assay experimental procedure: SKBR3 or T47D cells are seeded in DMEM containing 10% FBS at 25 k cells/well into 96-well cell culture format. Cells are incubated overnight at 37° C. in a 5% CO2 incubator and the following day cell media is aspirated, adherent cells are washed 1× with room temperature PBS prior to serum-free media application. Cells are returned to 37° C. 5% CO2 incubator and incubated a further 16 hrs. Compounds are added to serum starved adherent cells with a top dose of 10,000 nM and 3× multiple dose reductions for a minimum dose of 0.5 nM diluted in DMSO. Cell/compound incubation continues for 1 hr in a 37° C., 5% CO2 incubator prior to 10 minute PIK3CA stimulation with 20 ng/ml EGF. Cells treated with 0.1% DMSO and 20 ng/mL EGF are employed as negative control, cells treated with 10 uM Alpelisib and 20 ng/mL EGF are employed as a positive control. After 10 mins, plates are removed from incubator and cells are lysed with buffer and shaking 45 minutes. 20 μL of lysate is transferred to an opti-384 plate and 2.5 μl of Phospho-AKT d2 antibody with 2.5 μl of Phospho-AKT Eu Cryptate solution in the detection buffer are added to each well. 384 well plate is left overnight at room temperature before reading HTRF on an Envision plate reader.

PI3K H1047R = PI3K H1047R (Homo sapiens, UniProt P42336, H1047R); assay: PI3K H1047R ADP-Glo (PI/PS); type: biochemical; parameters: PI3K H1047R ADP-Glo (PI/PS) IC50: H1047R Selectivity: reference not given here; conditions: for pIC50: PI/PS substrate
PI3K H1047R, sequence (P42336 whole entry H1047R): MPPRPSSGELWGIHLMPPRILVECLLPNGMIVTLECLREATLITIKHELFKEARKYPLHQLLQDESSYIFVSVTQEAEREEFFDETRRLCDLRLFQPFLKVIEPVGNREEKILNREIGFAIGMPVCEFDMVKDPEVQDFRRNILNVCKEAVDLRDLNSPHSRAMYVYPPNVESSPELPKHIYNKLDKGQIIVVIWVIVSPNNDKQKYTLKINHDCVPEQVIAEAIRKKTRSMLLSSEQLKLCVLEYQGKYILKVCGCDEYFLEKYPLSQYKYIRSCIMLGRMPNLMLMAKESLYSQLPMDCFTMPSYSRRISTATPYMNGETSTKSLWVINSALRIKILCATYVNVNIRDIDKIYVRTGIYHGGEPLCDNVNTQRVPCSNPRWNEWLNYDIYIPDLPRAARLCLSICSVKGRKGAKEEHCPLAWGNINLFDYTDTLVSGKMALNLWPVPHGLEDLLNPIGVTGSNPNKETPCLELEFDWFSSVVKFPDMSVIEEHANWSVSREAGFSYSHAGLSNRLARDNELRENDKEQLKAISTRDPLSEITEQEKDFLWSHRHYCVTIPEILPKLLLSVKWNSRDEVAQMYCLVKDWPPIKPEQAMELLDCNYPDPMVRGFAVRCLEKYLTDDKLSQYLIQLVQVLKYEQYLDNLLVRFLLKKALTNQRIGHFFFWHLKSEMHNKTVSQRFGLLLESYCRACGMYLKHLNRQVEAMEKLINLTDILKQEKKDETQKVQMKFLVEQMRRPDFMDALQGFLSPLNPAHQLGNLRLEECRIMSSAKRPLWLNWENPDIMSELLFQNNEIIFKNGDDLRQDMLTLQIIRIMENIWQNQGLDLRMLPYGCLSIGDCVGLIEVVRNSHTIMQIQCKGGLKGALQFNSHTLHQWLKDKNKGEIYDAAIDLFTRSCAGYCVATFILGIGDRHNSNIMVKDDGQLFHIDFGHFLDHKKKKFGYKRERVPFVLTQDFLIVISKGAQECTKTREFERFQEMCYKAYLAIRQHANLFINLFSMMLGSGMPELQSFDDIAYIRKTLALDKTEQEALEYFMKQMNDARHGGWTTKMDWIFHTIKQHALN
PI3K H1047R, sequence (P27986 whole entry partner): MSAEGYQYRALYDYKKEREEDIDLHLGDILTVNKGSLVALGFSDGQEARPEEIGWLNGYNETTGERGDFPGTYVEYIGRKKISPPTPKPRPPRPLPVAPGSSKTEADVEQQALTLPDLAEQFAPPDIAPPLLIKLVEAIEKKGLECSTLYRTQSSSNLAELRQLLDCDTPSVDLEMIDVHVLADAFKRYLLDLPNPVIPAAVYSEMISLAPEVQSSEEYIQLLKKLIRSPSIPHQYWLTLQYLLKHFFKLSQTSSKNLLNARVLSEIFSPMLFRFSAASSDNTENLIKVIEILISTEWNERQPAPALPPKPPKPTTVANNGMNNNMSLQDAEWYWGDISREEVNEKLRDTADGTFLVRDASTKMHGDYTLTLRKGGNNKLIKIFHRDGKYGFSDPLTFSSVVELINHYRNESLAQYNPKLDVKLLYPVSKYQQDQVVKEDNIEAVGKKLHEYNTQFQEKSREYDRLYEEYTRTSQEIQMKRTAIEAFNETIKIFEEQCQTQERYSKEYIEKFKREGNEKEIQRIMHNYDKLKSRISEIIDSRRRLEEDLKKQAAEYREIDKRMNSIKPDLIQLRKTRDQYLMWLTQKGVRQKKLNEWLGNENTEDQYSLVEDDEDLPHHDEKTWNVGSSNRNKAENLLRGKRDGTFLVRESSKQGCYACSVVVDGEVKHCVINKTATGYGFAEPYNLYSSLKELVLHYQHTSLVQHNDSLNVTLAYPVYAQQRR

T1 sequence (P42336 whole entry H1047R): as the sequence (P42336 whole entry H1047R) above
T1 sequence (P27986 whole entry partner): as the sequence (P27986 whole entry partner) above

Row | SMILES | T47D pAKT S473 HTRF IC50 (H1047R): T47D (H1047R) selectivity over SKBR3 (WT) [1] | pIC50 [1] | PI3K H1047R ADP-Glo (PI/PS) IC50: H1047R Selectivity (PI3K H1047R) | pIC50 (PI3K H1047R)
1 | Cc1cc(C(C)Nc2ccccc2C(=O)O)c2cc(-c3ccnc(C4CC4)c3)nc(C(N)=O)c2c1 (centres unmarked) [Compound 73] | A (A denotes >20-fold) | > 6.12 | A (A denotes >20-fold) | > 6.00
2 | Cc1cc([C@H](C)Nc2ccccc2C(=O)O)c2nc(-c3ccc4c(c3)c(C)nn4C)n(C)c(=O)c2c1 (single isomer, unassigned) [Compound 33] | A (A denotes >20-fold) | > 6.12 | B (B denotes 20-fold≥value>5-fold) | > 6.00
3 | Cc1cc([C@@H](C)Nc2ccccc2C(=O)O)c2nc(-c3ccc4c(c3)c(C)nn4C)n(C)c(=O)c2c1 [Compound 41] | C (C denotes ≤5-fold) | ≤ 5.70 | – | ≤ 5.00
4 | Cc1cc(C(C)Nc2ccccc2C(=O)O)c2cc(N3Cc4ccccc4C3)nc(O)c2c1 (centres unmarked) [Compound 51] | A (A denotes >20-fold) | > 6.12 | A (A denotes >20-fold) | > 6.00
5 | Cc1cc([C@@H](C)Nc2ccccc2C(=O)O)c2cc(N3Cc4ccccc4C3)ncc2c1 [Compound 81] | A (A denotes >20-fold) | > 6.12 | A (A denotes >20-fold) | > 6.00
6 | Cc1cc([C@@H](C)Nc2ccccc2C(=O)O)c2cc(-c3ccnc(C4CC4)c3)n(C)c(=O)c2c1 [Compound 79] | C (C denotes ≤5-fold) | ≤ 5.70 | – | ≤ 5.00
7 | Cc1cc([C@@H](C)Nc2ccccc2C(=O)O)c2cc(-c3ccc(F)cc3)n(C)c(=O)c2c1 [Compound 76] | A (A denotes >20-fold) | > 6.12 | A (A denotes >20-fold) | > 6.00
8 | Cc1cc(C(C)Nc2ccccc2C(=O)O)c2cc(N3CCOCC3)ncc2c1 (centres unmarked) [Compound 37] | A (A denotes >20-fold) | > 6.12 | A (A denotes >20-fold) | > 6.00
9 | Cc1cc([C@H](C)Nc2ccccc2C(=O)O)c2cc(N3CCOCC3)ncc2c1 [Compound 58] | C (C denotes ≤5-fold) | ≤ 5.70 | – | ≤ 5.00
10 | Cc1cc([C@H](C)Nc2ccccc2C(=O)O)c2cc(-c3ccc(F)cc3)n(C)c(=O)c2c1 [Compound 75] | B (B denotes 20-fold≥value>5-fold) | 5.70 to 6.12 | – | ≤ 5.00
11 | Cc1cc(C(C)Nc2ccccc2C(=O)O)c2[nH]c(N3CCOCC3)nc(=O)c2c1 (centres unmarked) [Compound 19] | B (B denotes 20-fold≥value>5-fold) | 5.70 to 6.12 | B (B denotes 20-fold≥value>5-fold) | 5.00 to 6.00
12 | Cc1cc(C(C)Nc2ccccc2C(=O)O)c2nc(N3CCC(C)(C)CC3)nc(C#N)c2c1 (centres unmarked) [Compound 26, 2-((1-(4-cyano-2-(4,4-dimethylpiperidin-1-yl)-6-methylquinazolin-8-yl)ethyl)amino)benzoic acid] | C (C denotes ≤5-fold) | ≤ 5.70 | C (C denotes ≤5-fold) | ≤ 5.00
13 | Cc1cc(C(C)Nc2ccccc2C(=O)O)c2nc(N3CCC(C)(C)CC3)ncc2c1 (centres unmarked) [Compound 10] | A (A denotes >20-fold) | > 6.12 | A (A denotes >20-fold) | > 6.00
14 | Cc1cc([C@H](C)Nc2ccccc2C(=O)O)c2cc(-c3ccc4c(c3)c(C)nn4C)ncc2c1 [Compound 83] | C (C denotes ≤5-fold) | ≤ 5.70 | C (C denotes ≤5-fold) | ≤ 5.00
15 | Cc1cc([C@@H](C)Nc2ccccc2C(=O)O)c2cc(N3CCOCC3)ncc2c1 [Compound 57] | A (A denotes >20-fold) | > 6.12 | A (A denotes >20-fold) | > 6.00
16 | Cc1cc(C(C)Nc2ccccc2C(=O)O)c2nc(-c3ccc(F)cc3)n(C)c(=O)c2c1 (centres unmarked) [Compound 38] | A (A denotes >20-fold) | > 6.12 | A (A denotes >20-fold) | > 6.00
17 | Cc1cc(C(C)Nc2ccccc2C(=O)O)c2cc(-c3ccnc(C4CC4)c3)n(C)c(=O)c2c1 (centres unmarked) [Compound 82] | A (A denotes >20-fold) | > 6.12 | A (A denotes >20-fold) | > 6.00
18 | Cc1cc([C@H](C)Nc2ccccc2C(=O)O)c2cc(-c3ccnc(C4CC4)c3)n(C)c(=O)c2c1 [Compound 78] | A (A denotes >20-fold) | > 6.12 | A (A denotes >20-fold) | > 6.00
19 | Cc1cc(C(C)Nc2ccccc2C(=O)O)c2nc(-c3cc(C)c4oc(=O)[nH]c4c3)ncc2c1 (centres unmarked) [Compound 5] | B (B denotes 20-fold≥value>5-fold) | 5.70 to 6.12 | – | ≤ 5.00
20 | Cc1cc([C@H](C)Nc2ccccc2C(=O)O)c2cc(N3Cc4ccccc4C3)ncc2c1 [Compound 80] | C (C denotes ≤5-fold) | ≤ 5.70 | – | ≤ 5.00
21 | Cc1cc([C@@H](C)Nc2ccccc2C(=O)O)c2nc(-c3cccnc3)n(C)c(=O)c2c1 [Compound 137] | A (A denotes >20-fold) | > 6.12 | – | –
22 | Cc1cc(C(C)Nc2ccccc2C(=O)O)c2nc(-c3ccc4c(c3)c(C)cn4C)n(C)c(=O)c2c1 (centres unmarked) [Compound 133] | A (A denotes >20-fold) | > 6.12 | – | –
23 | Cc1cc([C@@H](C)Nc2ccccc2C(=O)O)c2nc(-c3cnc(C)c(Cl)c3)n(C)c(=O)c2c1 [Compound 140] | B (B denotes 20-fold≥value>5-fold) | > 6.12 | – | –
24 | CCOc1nc(N2Cc3ccccc3C2)nc2c([C@@H](C)Nc3ccccc3C(=O)O)cc(C)cc12 [Compound 147] | C (C denotes ≤5-fold) | ≤ 5.70 | – | –
25 | Cc1cc(C(C)Nc2ccccc2C(=O)O)c2nc(N3Cc4ccccc4C3)ccc2c1 (centres unmarked) [Compound 30] | B (B denotes 20-fold≥value>5-fold) | 5.70 to 6.12 | – | –
26 | Cc1cc(C(C)Nc2ccccc2C(=O)O)c2nc(N3CCC(C)(C)CC3)nc(C(N)=O)c2c1 (centres unmarked) [Compound 23] | C (C denotes ≤5-fold) | ≤ 5.70 | – | –
27 | Cc1cc(C(C)Nc2ccccc2C(=O)O)c2nc(N3Cc4ccccc4C3)nc(C(N)=O)c2c1 (centres unmarked) [Compound 24] | A (A denotes >20-fold) | > 6.12 | – | –
28 | Cc1cc([C@@H](C)Nc2ccccc2S(N)(=O)=O)c2nc(-c3cccnc3)n(C)c(=O)c2c1 [Compound 142] | A (A denotes >20-fold) | > 6.12 | – | –
29 | Cc1cc([C@@H](C)Nc2ccccc2C(=O)O)c2cc(-c3ccc4c(c3)c(C)nn4C)n(C)c(=O)c2c1 [Compound 86] | A (A denotes >20-fold) | > 6.12 | – | –
